Earlier results as cited in patent publication US10499664B2, “Fish feed formulation of Hypericum perforatum, Rosamarinus officianalis or a mixture thereof” (UNIVERSIDAD DE SANTIAGO DE CHILE, priority 2015, dated 2019).

How the values were obtained:
Details in all cases: pre-treatment, inflamed mouse ears
COX-2 = test system: COX-2
IL-1β = test system: IL-1β
TNF-α = test system: TNF-α

Structure (SMILES) | COX-2 inhibition (COX-2) | IL-1β gene expression (IL-1β) | TNF-α gene expression (TNF-α)
CC(C)c1cc2c(c(O)c1O)[C@@]1(C(=O)O)CCCC(C)(C)[C@@H]1CC2 [carnosic acid] | selectively inhibiting | reducing their expression | reducing their expression
CC(C)c1cc2c(c(O)c1O)[C@@]13CCCC(C)(C)[C@@H]1C[C@@H]2OC3=O [carnosol] | selectively inhibiting | reducing their expression | reducing their expression
